Data published in patent US9662318B2, “Bitopic muscarinic agonists and antagonists and methods of synthesis and use thereof” (BARRY UNIVERSITY, INC., priority 2012, dated 2017).
Where two headings read alike, the source gives them in different places.

Legend:
M3 muscarinic receptor [1] = target: T1, M3 muscarinic receptor (Homo sapiens, UniProt P20309); experiment: biochemical; format: binding; conditions: competition with [^3H]QNB
T1 construct: host or cells: Chinese hamster ovary cells

M3 muscarinic receptor [2] = target: T1, M3 muscarinic receptor; experiment: Accumulation of inositol phosphates in CHO cells; format: cell-based; conditions: ligand 0.1 mM, no carbachol
Procedure: Chinese hamster ovary cells stably transfected with the genes of human variants of muscarinic receptors were purchased from Missouri S&T cDNA Resource Center (Rolla, Mo., USA). […] Cells were grown to confluency in 75 cm^2 flasks in Dulbecco's modified Eagle's medium supplemented with 10% fetal bovine serum and 2 million of cells were subcultured to 100 mm Petri dishes. Medium was supplemented with 5 mM butyrate for the last 24 hours of cultivation to increase receptor expression.
Inositolphosphates formation was determined in cells pre-labeled overnight by 0.5 μM [^3H]myo-inositol in 0.3 mL of DMEM (3 μCi/ml) at 37° C. […] Incubation was stopped by removal of incubation buffer and addition 0.2 mL 20% trichloracetic acid (TCA). After 1 h incubation at 4° C., 100 μL, of TCA extracts were taken for measurement. Rest of the TCA was removed, and TCA precipitates were washed with 200 μL TCA and dissolved in 200 μL of 1 M NaOH. After 1 h incubation at 4° C., 100 μL, of NaOH lysates were taken for measurement. Radioactivity in TCA extracts and NaOH lysates were determined by liquid scintillation counting. The rate of inositolphosphates accumulation was calculated as a percentage of the soluble (released) inositolphosphates from the total incorporated radioactivity (sum of radioactivity in NaOH lysates and TCA extracts).
EC50 values are expressed as negative logarithms and EMAX values as folds over basal, Table 7.

M3 muscarinic receptor [3] = target: T1, M3 muscarinic receptor; experiment: Competition with [3H]NMS (equilibrium binding, CHO membranes); conditions: for IC50: competition with [^3H]NMS
Procedure: (§1) All radioligand binding experiments were optimized and carried out as described earlier. Briefly, membranes were incubated in 96-well plates at 30° C. in the incubation medium described. […] Dissociation was initiated by addition of atropine to final concentration of 5 Tested ligands in final concentration of 100 μM were added concurrently with atropine. Incubations were terminated by filtration through Whatman GF/C glass fiber filters (Whatman) using a Brandel cell harvester (Brandel, Gaithersburg, Md., USA). Filters were dried in vacuum for 1 h while heated at 80° C. and then solid scintillator Meltilex A was melted on filters (105° C., 90 s) using a hot plate. The filters were cooled and counted in Wallac Microbeta scintillation counter.
(§2) Inhibition constant KI was calculated as: […]

M4 muscarinic receptor [4] = target: T2, M4 muscarinic receptor (Homo sapiens, UniProt P08173); experiment: as above; conditions: for IC50: competition with [^3H]NMS
T2 construct: host or cells: Chinese hamster ovary cells
T2 sequence (P08173 1-479): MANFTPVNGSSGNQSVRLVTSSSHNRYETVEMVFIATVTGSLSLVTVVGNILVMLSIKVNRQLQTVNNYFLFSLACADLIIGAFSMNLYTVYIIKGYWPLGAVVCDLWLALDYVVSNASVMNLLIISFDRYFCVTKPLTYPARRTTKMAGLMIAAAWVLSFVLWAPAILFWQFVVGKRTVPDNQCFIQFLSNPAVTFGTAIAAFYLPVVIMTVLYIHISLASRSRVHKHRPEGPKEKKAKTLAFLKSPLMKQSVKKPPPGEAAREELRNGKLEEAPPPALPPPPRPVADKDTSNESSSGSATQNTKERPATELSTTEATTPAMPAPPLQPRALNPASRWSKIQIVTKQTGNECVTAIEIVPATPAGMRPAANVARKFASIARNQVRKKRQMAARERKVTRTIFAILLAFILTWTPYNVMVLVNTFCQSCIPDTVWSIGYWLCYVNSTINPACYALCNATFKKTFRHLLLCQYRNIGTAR
Procedure: as §1, §2

M1 muscarinic receptor = target: T3, M1 muscarinic receptor (Homo sapiens, UniProt P11229); experiment: as above; conditions: for IC50: competition with [^3H]NMS
T3 sequence (P11229 1-460): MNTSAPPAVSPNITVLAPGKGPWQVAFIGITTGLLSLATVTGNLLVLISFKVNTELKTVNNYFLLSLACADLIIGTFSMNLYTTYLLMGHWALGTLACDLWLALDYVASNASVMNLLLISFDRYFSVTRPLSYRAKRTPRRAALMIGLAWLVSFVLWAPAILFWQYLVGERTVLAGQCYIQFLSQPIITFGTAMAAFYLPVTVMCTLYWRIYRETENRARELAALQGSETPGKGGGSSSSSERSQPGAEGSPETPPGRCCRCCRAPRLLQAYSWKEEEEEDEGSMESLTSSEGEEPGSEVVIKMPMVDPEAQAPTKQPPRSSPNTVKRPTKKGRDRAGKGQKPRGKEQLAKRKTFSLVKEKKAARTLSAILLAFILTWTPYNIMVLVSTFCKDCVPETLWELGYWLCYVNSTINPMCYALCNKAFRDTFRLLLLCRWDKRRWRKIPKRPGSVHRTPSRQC
Procedure: as §1, §2

M5 muscarinic receptor = target: T4, M5 muscarinic receptor (Homo sapiens, UniProt P08912); experiment: as above; conditions: for IC50: competition with [^3H]NMS
T4 construct: host or cells: CHO (Chinese hamster ovary) cells, stably transfected
T4 sequence (P08912 1-532): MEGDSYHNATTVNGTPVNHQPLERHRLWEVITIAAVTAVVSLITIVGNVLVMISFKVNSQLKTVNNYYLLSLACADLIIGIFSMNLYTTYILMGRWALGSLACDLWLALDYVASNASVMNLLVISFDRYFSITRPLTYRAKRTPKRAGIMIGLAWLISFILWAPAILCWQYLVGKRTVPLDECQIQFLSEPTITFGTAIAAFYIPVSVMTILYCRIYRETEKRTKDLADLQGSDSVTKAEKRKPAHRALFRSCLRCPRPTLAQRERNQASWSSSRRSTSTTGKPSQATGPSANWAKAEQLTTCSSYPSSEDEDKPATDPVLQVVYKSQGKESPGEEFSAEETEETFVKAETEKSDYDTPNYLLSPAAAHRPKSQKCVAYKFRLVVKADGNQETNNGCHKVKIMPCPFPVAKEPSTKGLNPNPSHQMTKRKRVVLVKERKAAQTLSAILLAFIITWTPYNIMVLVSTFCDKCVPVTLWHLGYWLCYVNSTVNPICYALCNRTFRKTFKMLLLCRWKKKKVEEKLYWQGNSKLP
Procedure: as §1, §2

M4 muscarinic receptor [5] = target: T2, M4 muscarinic receptor; experiment: biochemical; format: binding; conditions: competition with [^3H]QNB
[6] = M3, average of 3, read-out: avg IC50
[7] = M3, experiment 1, read-out: IC50—1
[8] = M3, experiment 2, read-out: IC50—2
[9] = M3, experiment 3, read-out: IC50—3
[10] = M4, average of 3, read-out: avg IC50
[11] = M4, experiment 1, read-out: IC50—1
[12] = M4, experiment 2, read-out: IC50—2
[13] = M4, experiment 3, read-out: IC50—3

T1 sequence (P20309 whole entry): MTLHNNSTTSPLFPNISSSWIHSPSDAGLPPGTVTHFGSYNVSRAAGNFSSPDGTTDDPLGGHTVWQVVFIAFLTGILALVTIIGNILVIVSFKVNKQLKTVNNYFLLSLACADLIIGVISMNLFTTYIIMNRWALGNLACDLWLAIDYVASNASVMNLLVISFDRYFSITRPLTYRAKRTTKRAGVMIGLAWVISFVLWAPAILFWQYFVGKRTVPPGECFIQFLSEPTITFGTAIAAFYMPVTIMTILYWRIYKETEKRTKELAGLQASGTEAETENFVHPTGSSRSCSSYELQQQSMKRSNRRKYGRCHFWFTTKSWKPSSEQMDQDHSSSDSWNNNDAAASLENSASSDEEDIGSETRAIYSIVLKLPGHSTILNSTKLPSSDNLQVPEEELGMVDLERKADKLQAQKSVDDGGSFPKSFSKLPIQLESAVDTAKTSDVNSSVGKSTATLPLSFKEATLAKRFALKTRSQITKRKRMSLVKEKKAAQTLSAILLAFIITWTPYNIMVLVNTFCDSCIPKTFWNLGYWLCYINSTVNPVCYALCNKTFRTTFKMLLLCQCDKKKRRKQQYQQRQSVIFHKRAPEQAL

Which results are given for `CCCCOc1ccc(C(=O)OCC[N+]2(C)CCCCC2)cc1.[I-]` [JB-D4, 2-(N-piperidineethyl) p-butoxybenzoate N-methyl iodide]?
Ki (M3 muscarinic receptor [1]; M3): 4.34 µM; IC50 (M3 muscarinic receptor [1]; [6]): 29.4 µM; IC50 (M3 muscarinic receptor [1]; [7]): 39.5 µM; IC50 (M3 muscarinic receptor [1]; [8]): 20.6 µM; IC50 (M3 muscarinic receptor [1]; [9]): 28.2 µM; Effect of ligands on basal activity (accumulation of inositol phosphates as percent of accumulation in the absence of the ligand) (M3 muscarinic receptor [2]): 102 ± 2%; IC50 (M3 muscarinic receptor [3]; [6]): 16.9 µM; IC50 (M3 muscarinic receptor [3]; [7]): 16.6 µM; IC50 (M3 muscarinic receptor [3]; [8]): 17.2 µM; IC50 (M3 muscarinic receptor [3]; [9]): 16.9 µM; Ki (M3 muscarinic receptor [3]; read-out: KI): 3.16 µM; IC50 (M4 muscarinic receptor [4]; [10]): 41.8 µM; IC50 (M4 muscarinic receptor [4]; [11]): 43.4 µM; IC50 (M4 muscarinic receptor [4]; [12]): 42 µM; IC50 (M4 muscarinic receptor [4]; [13]): 40 µM; Ki (M4 muscarinic receptor [4]; read-out: KI): 7.54 µM; IC50 (M1 muscarinic receptor; M1, average of 3, read-out: avg IC50): 14.4 µM; IC50 (M1 muscarinic receptor; M1, experiment 1, read-out: IC50—1): 14.3 µM; IC50 (M1 muscarinic receptor; M1, experiment 2, read-out: IC50—2): 13.8 µM; IC50 (M1 muscarinic receptor; M1, experiment 3, read-out: IC50—3): 15.1 µM; Ki (M1 muscarinic receptor; read-out: KI): 2.88 µM; IC50 (M5 muscarinic receptor; M5, average of 3, read-out: avg IC50): 12.5 µM; IC50 (M5 muscarinic receptor; M5, experiment 1, read-out: IC50—1): 12.5 µM; IC50 (M5 muscarinic receptor; M5, experiment 2, read-out: IC50—2): 11.2 µM; IC50 (M5 muscarinic receptor; M5, experiment 3, read-out: IC50—3): 13.7 µM; Ki (M5 muscarinic receptor; read-out: KI): 2.88 µM; Ki (M4 muscarinic receptor [5]; M4): 3.08 µM; IC50 (M4 muscarinic receptor [5]; [10]): 27.1 µM; IC50 (M4 muscarinic receptor [5]; [11]): 20.6 µM; IC50 (M4 muscarinic receptor [5]; [12]): 32.6 µM; IC50 (M4 muscarinic receptor [5]; [13]): 28.1 µM
